Columns and labels:
HCT-116 [1] = experiment: Multi drug resistance reversal in HCT116/VM46 cell line treated with Vinblastine; assay type: functional, Homo sapiens
HCT-116 [2] = experiment: Intrinsic cytotoxic activity against Multidrug resistant HCT116/VM46 cell line; assay type: functional, cell-based; settings: Homo sapiens
HCT-116 [3] = experiment: Multi drug resistance reversal in HCT116/VM46 cell line treated with Doxorubicin; assay type: functional, Homo sapiens
HCT-116 [4] = experiment: Intrinsic cytotoxic activity against wild type HCT116 cell line; assay type: functional, cell-based; settings: Homo sapiens
HCT-116 [5] = experiment: inhibitory activity of compound against Multidrug resistance HCT116/VM46 cell line treated with Doxorubicin; assay type: functional, cell-based; settings: Homo sapiens
HCT-116 [6] = experiment: inhibitory activity of compound against Multidrug resistant HCT116/VM46 cell line treated with Vinblastine; assay type: functional, cell-based; settings: Homo sapiens
HCT-116 [7] = experiment: inhibitory activity of compound against Multidrug resistant HCT116/VM46 cell line treated with Doxorubicin at a compound concentration 7.5 uM; assay type: functional, cell-based; settings: Homo sapiens
HCT-116 [8] = experiment: Multi drug resistance reversal in HCT116/VM46 cell line treated with Vinblastine at a compound concentration 7.5 uM; assay type: functional, Homo sapiens
HCT-116 [9] = experiment: Multi drug resistance reversal in HCT116/VM46 cell line treated with Doxorubicin at a compound concentration 7.5 uM; assay type: functional, Homo sapiens
HCT-116 [10] = experiment: inhibitory activity against Multidrug resistant HCT116/VM46 cell line treated with Vinblastine at a compound concentration 7.5 uM; assay type: functional, cell-based; settings: Homo sapiens
HCT-116 [11] = experiment: inhibitory activity of compound against multidrug resistance HCT116/VM46 cell line treated with Doxorubicin; assay type: functional, cell-based; settings: Homo sapiens
HCT-116 [12] = experiment: Intrinsic cytotoxic activity against multidrug resistant HCT116/VM46 cell line; assay type: functional, cell-based; settings: Homo sapiens
HCT-116 [13] = experiment: inhibitory activity of compound against multidrug resistant HCT116/VM46 cell line treated with Vinblastine; assay type: functional, cell-based; settings: Homo sapiens

IC50 (HCT-116 [5]) [µM] | IC50 (HCT-116 [6]) [µM] | IC50 (HCT-116 [7]) [µM] | IC50 (HCT-116 [10]) [µM] | IC50 (HCT-116 [11]) [µM] | IC50 (HCT-116 [13]) [µM] | Structure (SMILES) | Reversion (HCT-116 [1]) [%] | IC50 (HCT-116 [2]) [µM] | Reversion (HCT-116 [3]) [%] | IC50 (HCT-116 [4]) [µM] | Reversion (HCT-116 [8]) [%] | Reversion (HCT-116 [9]) [%] | IC50 (HCT-116 [12]) [µM]
0.06 | 0.002 |  |  |  |  | COc1ccc(CCNNC(=O)c2c(-c3ccc(OC)c(OC)c3)c3c4cc(OC)c(OC)cc4oc(=O)c3n2CCc2ccc(OC)c(OC)c2)cc1 | 200 | 10 | 167 | 20 |  |  | 
0.1 | 0.005 |  |  |  |  | COC(=O)[C@H](CCCNNC(=O)c1c(-c2ccc(OC)c(OC)c2)c2c3cc(OC)c(OC)cc3oc(=O)c2n1CCc1ccc(OC)c(OC)c1)NC(=O)OCc1ccccc1 | 80 | 40 | 100 | 45 |  |  | 
0.1 | 0.002 |  |  |  |  | COc1ccc(OC)c(CCNNC(=O)c2c(-c3ccc(OC)c(OC)c3)c3c4cc(OC)c(OC)cc4oc(=O)c3n2CCc2ccc(OC)c(OC)c2)c1 | 200 | 10 | 100 | 25 |  |  | 
 |  |  |  | 0.1 | 0.004 | COc1ccc(C2CC2NNC(=O)c2c(-c3ccc(OC)c(OC)c3)c3c4cc(OC)c(OC)cc4oc(=O)c3n2CCc2ccc(OC)c(OC)c2)cc1 (stereo not drawn) | 100 |  | 100 | > 100 |  |  | > 100
0.2 | 0.01 |  |  |  |  | COc1ccc(CCn2c(C(=O)NNCCCCCCSC(C)=O)c(-c3ccc(OC)c(OC)c3)c3c4cc(OC)c(OC)cc4oc(=O)c32)cc1OC | 25 | 35 | 50 | 20 |  |  | 
0.1 | 0.002 |  |  |  |  | COc1cccc(CCNNC(=O)c2c(-c3ccc(OC)c(OC)c3)c3c4cc(OC)c(OC)cc4oc(=O)c3n2CCc2ccc(OC)c(OC)c2)c1 | 200 | 5 | 100 | 25 |  |  | 
0.18 | 0.01 |  |  |  |  | COc1ccc(CCn2c(C(=O)NNCCc3ccc(O)cc3)c(-c3ccc(OC)c(OC)c3)c3c4cc(OC)c(OC)cc4oc(=O)c32)cc1OC | 25 | 10 | 55 | 15 |  |  | 
0.12 | 0.004 |  |  |  |  | COc1ccc(CNNC(=O)c2c(-c3ccc(OC)c(OC)c3)c3c4cc(OC)c(OC)cc4oc(=O)c3n2CCc2ccc(OC)c(OC)c2)cc1 | 100 | 30 | 80 | 40 |  |  | 
0.1 | 0.004 |  |  |  |  | COc1ccc(CCNNC(=O)c2c(-c3ccc(OC)c(OC)c3)c3c4cc(OC)c(OC)cc4oc(=O)c3n2CCc2ccc(OC)c(OC)c2)cc1OC | 100 | 5 | 100 | 5 |  |  | 
0.45 | 0.03 |  |  |  |  | COc1ccc(CCn2c(C(=O)NCCCCCCNC(=O)c3c(-c4ccc(OC)c(OC)c4)c4c5cc(OC)c(OC)cc5oc(=O)c4n3CCc3ccc(OC)c(OC)c3)c(-c3ccc(OC)c(OC)c3)c3c4cc(OC)c(OC)cc4oc(=O)c32)cc1OC | 15 | > 100 | 20 | > 100 |  |  | 
0.1 | 0.004 |  |  |  |  | COc1ccc(CCn2c(C(=O)NNCCc3ccc(F)cc3)c(-c3ccc(OC)c(OC)c3)c3c4cc(OC)c(OC)cc4oc(=O)c32)cc1OC | 100 | 20 | 100 | 30 |  |  | 
0.1 | 0.004 |  |  |  |  | COc1ccc(CCn2c(C(=O)NNCCc3c[nH]c4ccccc34)c(-c3ccc(OC)c(OC)c3)c3c4cc(OC)c(OC)cc4oc(=O)c32)cc1OC | 100 | > 100 | 100 | > 100 |  |  | 
0.75 | 0.05 |  |  |  |  | COc1ccc(CCn2c(C(=O)NCCNC(=O)c3c(-c4ccc(OC)c(OC)c4)c4c5cc(OC)c(OC)cc5oc(=O)c4n3CCc3ccc(OC)c(OC)c3)c(-c3ccc(OC)c(OC)c3)c3c4cc(OC)c(OC)cc4oc(=O)c32)cc1OC | 10 | > 100 | 10 | > 100 |  |  | 

Second part, the molecule before the results:

Structure (SMILES) | IC50 (HCT-116 [5]) [µM] | IC50 (HCT-116 [6]) [µM] | IC50 (HCT-116 [7]) [µM] | IC50 (HCT-116 [10]) [µM] | IC50 (HCT-116 [11]) [µM] | IC50 (HCT-116 [13]) [µM] | Reversion (HCT-116 [1]) [%] | IC50 (HCT-116 [2]) [µM] | Reversion (HCT-116 [3]) [%] | IC50 (HCT-116 [4]) [µM] | Reversion (HCT-116 [8]) [%] | Reversion (HCT-116 [9]) [%] | IC50 (HCT-116 [12]) [µM]
COc1ccc(CCN(C)CCCC(C#N)(c2ccc(OC)c(OC)c2)C(C)C)cc1OC (stereo not drawn) | 0.5 | 0.02 |  |  |  |  | 10 |  | 20 |  |  |  | 
COc1ccc(CCn2c(C(=O)N(C)C)c(-c3ccc(OC)c(OC)c3)c3c4cc(OC)c(OC)cc4oc(=O)c32)cc1OC | 0.1 | 0.002 | 0.01 | 0.0002 |  |  | 100 | 20 | 100 | 25 | 1000 | 1000 | 
COc1ccc(CCn2c(C(=O)NN3CCC4(CC3)OCCO4)c(-c3ccc(OC)c(OC)c3)c3c4cc(OC)c(OC)cc4oc(=O)c32)cc1OC | 0.1 | 0.006 |  |  |  |  | 67 | 10 | 100 | 15 |  |  | 
COc1ccc(CCn2c(C(=O)NNC(c3ccccc3)c3ccccc3)c(-c3ccc(OC)c(OC)c3)c3c4cc(OC)c(OC)cc4oc(=O)c32)cc1OC | 0.12 | 0.004 |  |  |  |  | 100 | 15 | 80 | 25 |  |  | 
CC[C@]1(O)C[C@@H]2CN(CCc3c([nH]c4ccccc34)[C@@](C(=O)OC)(c3cc4c(cc3OC)N(C)[C@H]3[C@@](O)(C(=O)OC)[C@H](OC(C)=O)[C@]5(CC)C=CCN6CC[C@]43[C@@H]65)C2)C1 [VINBLASTINE] |  |  |  |  |  |  |  |  |  | 0.004 |  |  | 
COc1ccc(CCn2c(C(=O)NNCCc3cccs3)c(-c3ccc(OC)c(OC)c3)c3c4cc(OC)c(OC)cc4oc(=O)c32)cc1OC | 0.1 | 0.004 |  |  |  |  | 100 | > 100 | 100 | > 100 |  |  | 
COCCN(CCOC)NC(=O)c1c(-c2ccc(OC)c(OC)c2)c2c3cc(OC)c(OC)cc3oc(=O)c2n1CCc1ccc(OC)c(OC)c1 | 0.15 | 0.009 |  |  |  |  | 45 | 15 | 50 | 25 |  |  | 
COC(=O)c1c(-c2ccc(OC)c(OC)c2)c2c3cc(OC)c(OC)cc3oc(=O)c2n1CCc1ccc(OC)c(OC)c1 |  | 0.002 |  |  |  |  | 100 |  |  |  |  |  | 
COc1ccc(CCn2c(C(=O)NN)c(-c3ccc(OC)c(OC)c3)c3c4cc(OC)c(OC)cc4oc(=O)c32)cc1OC | 0.24 | 0.007 |  |  |  |  | 60 | > 100 | 40 | > 100 |  |  | 
COc1ccc(CCn2cc(-c3ccc(OC)c(OC)c3)c3c4cc(OC)c(OC)cc4oc(=O)c32)cc1OC |  | 0.002 |  |  |  |  | 100 |  |  |  |  |  | 
COc1ccc(CCn2c(C(=O)NN[C@@H](C)C(=O)OC(C)(C)C)c(-c3ccc(OC)c(OC)c3)c3c4cc(OC)c(OC)cc4oc(=O)c32)cc1OC | 0.18 | 0.008 |  |  |  |  | 50 | 4 | 55 | 7 |  |  | 
